Test results: patent US20220280513A1, “ENHANCING THE ANTIVIRAL EFFICACY OF RNA VIRUS INHIBITION BY COMBINATION WITH MODULATORS OF PYRIMIDINE METABOLISM” (The Board of Trustees of the Leland Stanford Junior …, priority 2019, published 2022)

Test system: intracellular uridine and cytidine nucleotide levels
Assay: LC-MS/MS analysis of intracellular nucleotides in A549 cells
Assay type: cell-based
Settings: 250 μM with 1 μM GSK983, 5 μM uridine, 6 h
Protocol: FIG. 7. LC-MS analysis of intracellular nucleotides. (A) LC-MS analysis of intracellular uridine and cytidine nucleotide levels after 6 h treatments. In all assays, the culture medium was supplemented with 5 μM uridine and 1 μM GSK983. Error bars represent ±S.D. of two replicates. (B) LC-MS detection of mono-, di- and tri-phosphates of CPU and 5-F-CPU in cells. LC-MS/MS was performed on an Agilent 1290 infinity II LC system tandem with 6370 triple quad mass spectrometer using ion pairing chromatography. LC separation was performed at 40° C. with a solvent flow rate of 0.25 mL/min on a Zorbax RRHD Extended-C18 column (2.1×150 mm, 1.8 μM). Buffer A contained 97% H2O, 3% MeOH, 5 mM tributylamine, 5.5 mM Acetic acid and 1 μM medronic acid with pH=5.0; Buffer B contains ca. 100% MeOH, 5 mM tributylamine, 5.5 mM Acetic acid and 5 μM medronic acid with pH=7.0 The initial mobile phase composition was 100% solvent A, and a constant or linear gradient was applied after sample injection with eluent B varying as follows: 0% at 2.5 min, 20% at 7.5 min, 45% at 14 min, 99% at 20 to 23 min, and 0% from 23.1 to 27.1 min. […] Samples were measured in the negative ESI mode with capillary voltage at −3.5 kV. […]
With optimized sampling and detection method in hand, pyrimidine nucleotide levels were measured in cells cultured with either 250 μM CPU, 5-F-CPU or 5′-F-CPU in combination with 1 μM GSK983 (FIG. 7A). […]

## O=c1ccn([C@@H]2C=C(CO)[C@@H](O)[C@H]2O)c(=O)[nH]1 [CPU, 1-((1R,4R,5S)-4,5-dihydroxy-3-(hydroxymethyl)cyclopent-2-en-1-yl)pyrimidine-2,4(1H,3H)-dione]
  depletion of UTP and CTP concentrations: more strongly than 5-F-CPU
